Experimental data: patent US20240400521A1, “QUINAZOLINE COMPOUND, COMPOSITION, AND APPLICATION THEREOF” (BEIJING SCITECH-MQ PHARMACEUTICALS LIMITED, priority 2021, published 2024)

Assays:
[1] = molecular target: Ba/F3 EGFR D770_N771insSVD cells (Homo sapiens, UniProt P00533, DUP768-770, cells depend on it); experiment: Inhibition of cell proliferation, CTG method, Ba/F3 EGFR D770_N771insSVD; type: cell-based; conditions: 72 hours, read-out: Ba/F3 EGFR D770_N771insSVD IC50
Description: (§1) The present application examined the in vitro anti-proliferative activity of the compounds of the present disclosure against in vitro cultured HCC-827, Ba/F3-EGFR-VIII and Ba/F3 EGFR D770_N771insSVD cell lines by CTG method.
(§2) Reagents and consumables: RPMI1640 (ThermoFisher, Cat. No. C11875500BT); DMEM (ThermoFisher, C11995500BT); fetal bovine serum (Hyclone, Cat. No. SV30087.03); 0.25% trypsin-EDTA (ThermoFisher, Cat. No. 25200072); penicillin-streptomycin (Hyclone, Cat. No. SV30010); DMSO (Life Science, Cat. No. 0231-500ML); CTG assay kit (Promega, Cat. No. G9243); 96-well plate (Corning, Cat. No. 3599); multifunctional plate reader (Perkin Elmer, Cat. No. Envision)
(§3) Cell lines: HCC-827 (from ATCC), Ba/F3-EGFR-VIII and Ba/F3 EGFR D770_N771insSVD (all from KYinno Biotechnology (Beijing) Co., Ltd.); all of the above cells were cultured with RPMI1640 medium containing 10% fetal bovine serum, 100 U/mL penicillin, and 100 μg/mL streptomycin in the culture process, and HCC-827 was cultured with DMEM medium containing 10% fetal bovine serum, 100 U/mL penicillin, and 100 μg/mL streptomycin.
(§4) • 1. The assay compound was dissolved with DMSO to form a stock solution and a gradient dilution was performed, followed by dilution with the corresponding medium to obtain a solution with 5-fold working concentration. • 2. Cells in logarithmic growth phase were adjusted to specific cell densities by dilution with culture medium, and 80 μL of cell suspension was added to a 96-well plate, such that plating densities of cells of HCC-827, Ba/F3-EGFR-VIII and Ba/F3 EGFR D770_N771insSVD were all 3000 cells/well. The cells of Ba/F3-EGFR-VIII and Ba/F3 EGFR D770_N771insSVD were used directly in the next step (treatment with compound), whereas the HCC-827 needed to be cultured overnight in a 37° C., 5% carbon dioxide gas incubator to adhere to the wall, and then treated with compounds. • 3. 20 μL of compound solution was added to each well of the 96-well plate that had been inoculated with cells. The highest concentration of the assayed compound was 10 μM, 4-fold serial dilution, a total of 9 concentrations, and duplicate wells. A control group without compound was also set up. • 4. The cells were cultured for another 72 hours, and then cell viability was detected by CTG assay kit. Signal values were read with a multifunctional plate reader (Perkin Elmer). GraphPad Prism software was used to create a dose-response curve and IC50 was calculated.

Ba/F3-EGFR-VIII cells = Ba/F3-EGFR-VIII cells (Homo sapiens, UniProt P00533, DELINS30-297G, cells depend on it); experiment: Inhibition of cell proliferation, CTG method, Ba/F3-EGFR-VIII; type: cell-based; conditions: 72 hours, read-out: Ba/F3 EGFRvIII IC50
Description: as §1, §2, §3, §4

Chain of Ba/F3 EGFR D770_N771insSVD cells (P00533 with tags, fused parts or gaps DUP768-770): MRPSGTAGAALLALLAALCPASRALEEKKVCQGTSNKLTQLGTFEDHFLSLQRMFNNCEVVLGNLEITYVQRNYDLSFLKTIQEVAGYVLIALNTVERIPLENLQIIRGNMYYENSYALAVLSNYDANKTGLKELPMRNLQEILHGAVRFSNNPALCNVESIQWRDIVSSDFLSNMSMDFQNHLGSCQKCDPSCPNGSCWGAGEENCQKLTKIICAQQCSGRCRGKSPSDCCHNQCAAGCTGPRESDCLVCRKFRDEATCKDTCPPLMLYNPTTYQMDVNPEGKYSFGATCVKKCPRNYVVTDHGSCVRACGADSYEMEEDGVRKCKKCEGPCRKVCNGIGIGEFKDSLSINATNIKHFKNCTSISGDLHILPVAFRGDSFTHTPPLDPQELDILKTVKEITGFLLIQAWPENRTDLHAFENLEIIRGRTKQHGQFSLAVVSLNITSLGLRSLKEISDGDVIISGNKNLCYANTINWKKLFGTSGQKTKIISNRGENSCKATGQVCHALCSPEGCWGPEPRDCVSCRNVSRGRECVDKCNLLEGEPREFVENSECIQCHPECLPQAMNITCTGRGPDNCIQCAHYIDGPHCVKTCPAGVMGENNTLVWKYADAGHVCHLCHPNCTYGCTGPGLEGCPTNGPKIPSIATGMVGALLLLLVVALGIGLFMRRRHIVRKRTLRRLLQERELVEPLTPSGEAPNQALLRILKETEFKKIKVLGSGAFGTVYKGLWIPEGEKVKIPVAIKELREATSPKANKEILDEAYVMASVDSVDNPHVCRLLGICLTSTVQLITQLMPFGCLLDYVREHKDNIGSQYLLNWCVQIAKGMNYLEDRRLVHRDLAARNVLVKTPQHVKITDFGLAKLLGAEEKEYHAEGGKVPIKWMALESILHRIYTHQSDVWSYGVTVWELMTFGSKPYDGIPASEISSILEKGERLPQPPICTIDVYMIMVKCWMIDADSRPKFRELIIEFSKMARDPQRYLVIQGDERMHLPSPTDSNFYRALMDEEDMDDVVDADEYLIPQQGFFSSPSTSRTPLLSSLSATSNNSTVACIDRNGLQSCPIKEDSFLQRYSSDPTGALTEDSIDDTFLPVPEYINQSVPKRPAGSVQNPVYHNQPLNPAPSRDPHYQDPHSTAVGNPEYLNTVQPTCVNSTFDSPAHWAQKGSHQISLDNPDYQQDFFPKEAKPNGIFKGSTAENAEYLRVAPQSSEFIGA
Chain of Ba/F3-EGFR-VIII cells (P00533 with tags, fused parts or gaps DELINS30-297G): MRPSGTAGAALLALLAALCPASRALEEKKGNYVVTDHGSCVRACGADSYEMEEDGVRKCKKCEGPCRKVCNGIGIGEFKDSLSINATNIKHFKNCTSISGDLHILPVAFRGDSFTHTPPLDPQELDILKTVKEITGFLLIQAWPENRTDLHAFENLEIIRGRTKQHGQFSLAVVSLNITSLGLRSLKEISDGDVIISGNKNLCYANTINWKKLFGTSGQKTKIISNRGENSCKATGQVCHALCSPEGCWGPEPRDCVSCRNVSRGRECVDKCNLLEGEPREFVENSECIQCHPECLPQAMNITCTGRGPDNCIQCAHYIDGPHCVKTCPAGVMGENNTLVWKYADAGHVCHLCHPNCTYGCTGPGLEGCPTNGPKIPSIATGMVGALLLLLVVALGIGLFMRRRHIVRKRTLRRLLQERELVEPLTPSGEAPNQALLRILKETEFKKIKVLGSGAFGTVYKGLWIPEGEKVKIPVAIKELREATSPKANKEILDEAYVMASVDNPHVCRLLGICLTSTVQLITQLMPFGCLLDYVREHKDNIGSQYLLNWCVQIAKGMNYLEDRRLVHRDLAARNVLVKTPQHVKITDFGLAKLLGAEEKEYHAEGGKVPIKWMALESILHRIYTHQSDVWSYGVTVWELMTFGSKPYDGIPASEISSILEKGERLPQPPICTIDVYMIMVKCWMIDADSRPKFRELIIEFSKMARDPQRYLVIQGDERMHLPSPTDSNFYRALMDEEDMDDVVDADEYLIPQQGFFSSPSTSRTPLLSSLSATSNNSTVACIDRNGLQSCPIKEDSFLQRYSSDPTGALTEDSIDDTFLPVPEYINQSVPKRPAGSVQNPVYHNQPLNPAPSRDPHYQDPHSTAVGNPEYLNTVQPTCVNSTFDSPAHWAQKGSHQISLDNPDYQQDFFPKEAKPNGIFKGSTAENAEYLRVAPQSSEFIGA

GI50 [1]: 0.05 to 0.5 µM | GI50 (Ba/F3-EGFR-VIII cells): ≤ 0.005 µM
Structure (SMILES): COc1c(NC(=O)/C=C/CN(C)C)ccc2ncnc(Nc3cccc(Cl)c3F)c12 [Example 1, (E)-N-(4-((3-chloro-2-fluorophenyl)amino)-5-methoxyquinazolin-6-yl)-4-(dimethylamino)but-2-enamide]
